The numbers were not newly measured in US20020064550A1, “Edible candy compositions and methods of using same” (AkPharma, Inc., priority 2000, published 2002), which cites them from elsewhere.

Where two headings read alike, the source gives them in different places.

The subject of data set [1] is symptoms of bladder irritants. The note with it: 200 reported patients; calcium glycerophosphate taken with foods; 79.4% without calcium glycerophosphate.
Data set [2] deals with dental caries. The note with it: human children.
For data set [3], the system named is dental caries. The note with it: sugar-content diets of animals.

Take “1,2,3-propanetriol, mono(dihydrogen phosphate) calcium salt (1:1) [calcium glycerophosphate]”: in data set [1], the “over-all symptoms of bladder irritants” value is given as 14.6%. For the same substance, the dental caries reduction entry in the data set with dental caries [2] is reported as “fail to confirm same”; in the data set with dental caries [3], “confirm dental caries reduction”.
